Molecules are shown by their SMILES.

Chain of Mitogen-activated protein kinase kinase kinase kinase 1 (Q92918 whole entry): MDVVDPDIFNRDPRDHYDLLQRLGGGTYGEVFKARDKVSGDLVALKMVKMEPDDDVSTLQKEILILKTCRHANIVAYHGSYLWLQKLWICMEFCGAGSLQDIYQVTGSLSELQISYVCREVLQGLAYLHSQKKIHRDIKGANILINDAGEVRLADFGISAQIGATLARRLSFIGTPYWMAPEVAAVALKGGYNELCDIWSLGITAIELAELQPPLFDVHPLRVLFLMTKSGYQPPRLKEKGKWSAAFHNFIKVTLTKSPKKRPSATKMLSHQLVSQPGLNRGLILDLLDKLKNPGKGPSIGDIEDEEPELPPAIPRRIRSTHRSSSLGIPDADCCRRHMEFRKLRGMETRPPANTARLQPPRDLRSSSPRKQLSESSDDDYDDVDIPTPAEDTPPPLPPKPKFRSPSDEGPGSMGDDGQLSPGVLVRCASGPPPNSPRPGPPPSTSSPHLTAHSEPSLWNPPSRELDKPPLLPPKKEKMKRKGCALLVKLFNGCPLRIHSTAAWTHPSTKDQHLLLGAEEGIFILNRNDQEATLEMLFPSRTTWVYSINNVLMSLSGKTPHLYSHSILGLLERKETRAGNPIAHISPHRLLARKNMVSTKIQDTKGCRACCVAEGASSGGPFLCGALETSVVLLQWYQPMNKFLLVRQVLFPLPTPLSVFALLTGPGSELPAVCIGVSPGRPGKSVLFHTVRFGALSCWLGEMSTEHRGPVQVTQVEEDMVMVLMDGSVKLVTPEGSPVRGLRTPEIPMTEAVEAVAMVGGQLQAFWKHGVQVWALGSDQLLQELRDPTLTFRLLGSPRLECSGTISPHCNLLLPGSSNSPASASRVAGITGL

The test deals with Mitogen-activated protein kinase kinase kinase kinase 1 (Homo sapiens, UniProt Q92918). The experiment in a line: Detection of Compound's Ability to Inhibit HPK1 Kinase Activity Assay. The procedure:
The specific operation is as follows: configure the enzymatic reaction system buffer (10 mM MOPS, pH 7.2, 5 mM β-glycerol-phosphate, 10 mM MgCl2, 0.8 mM EDTA, 2 mM EGTA, 0.1 mM DTT); the test compound (1 mM the compound stock solution in DMSO) was diluted with buffer to the highest concentration of 60 uM (containing 6% DMSO), and the compound with a concentration of 60 μM was initially diluted 5 times with a buffer containing 6% DMSO for a total of 8 points of gradient concentration; then dilute HPK1 kinase to 30 nM in buffer. Add 2 μl of HPK1 kinase diluent to each well of a Greiner 384-well microplate (Cat. No. 784075), and add 2 μl of buffer to the control well; add 1 μl of the diluted compound to the reaction well after brief centrifugation, and add 1 μl buffer solution containing 6% DMSO to the control well; after short centrifugation, place in a 25° C. constant temperature incubator (Shanghai Yiheng Scientific Instrument Co., Ltd., Cat. No.: LRH-150) and incubate for 20 minutes. Add 3 μl of reaction substrate (10 μM MBP and 20 μM ATP dissolved in distilled water) to each well, briefly centrifuge and incubate in a constant temperature incubator at 25° C. for 60 min, and use ADP-Glo Kinase Assay Kit to detect the enzymatic reaction activity, ADP-Glo Kinase Assay Kit detection is carried out according to the operating instructions of the kit. Data are described using the half maximal inhibitory
On to `COc1nc2c(cc1Nc1ncc3cccc(-c4ccccc4)c3n1)CN(C)CC2` [US20230399327, Example 1], for which the IC50 is less than 0.1 nM.

On to `COc1nc2c(cc1Nc1ncc3cccc(-c4cnn5ccccc45)c3n1)CN(C)CC2` [US20230399327, Example 2], for which the IC50 is less than 0.1 nM.

As for `COc1nc2c(cc1Nc1ncc3ccnc(C4=CCOCC4)c3n1)CN(C)CC2` [US20230399327, Example 26], it took 8.31 nM to reach half-maximal inhibition (IC50).

Consider `CN1CCc2[nH]c(=O)c(Nc3ncc4ccnc(NCC(C)(C)CO)c4n3)cc2C1` [US20230399327, Example 70], for which the midpoint of inhibition, the IC50, lay at 0.29 nM. Against the preceding compound, the IC50 is about 29-fold lower.

Consider `CN1CCc2[nH]c(=O)c(Nc3ncc4ccnc(N5CCSCC5)c4n3)cc2C1` [US20230399327, Example 72], for which the IC50 amounted to 21.2 nM. Compared with the last compound, the IC50 is about 73-fold higher.

`CN1CCc2[nH]c(=O)c(Nc3ncc4ccnc(N5CCCCCC5)c4n3)cc2C1` [US20230399327, Example 73] registered an IC50 of 0.41 nM.

In turn, `C[C@@H]1CCCCN1c1nccc2cnc(Nc3cc4c([nH]c3=O)CCN(C)C4)nc12` [US20230399327, Example 76] returned an IC50 of less than 0.1 nM.

Consider `CN1CCc2[nH]c(=O)c(Nc3ncc4ccnc(NCC5(C)CC5)c4n3)cc2C1` [US20230399327, Example 77], for which the IC50 is less than 0.1 nM.

In the case of `CN1CCc2c(cc(Nc3ncc4ccnc(N5CCC(F)(F)CC5)c4n3)c(=O)n2C)C1` [US20230399327, Example 79], the IC50 was less than 0.1 nM.

`CN1CCc2c(cc(Nc3ncc4ccnc(N5CCC(F)(F)C5)c4n3)c(=O)n2C)C1` [US20230399327, Example 85] displayed an IC50 of 25.3 nM.

Consider `CCOc1nc2c(cc1Nc1ncc3ccnc(N[C@H](CO)C(C)C)c3n1)CN(C)CC2` [US20230399327, Example 89], for which the IC50 was less than 0.1 nM.

Regarding `COc1nc2c(cc1Nc1ncc3ccnc(N[C@H](CO)C(C)C)c3n1)CN(C)CC2` [US20230399327, Example 91], half-maximal inhibition (IC50) was put at 21.5 nM.

In the case of `CCOc1nc2c(cc1Nc1ncc3ccnc(N[C@@H]4CCC[C@H]4O)c3n1)CN(C)CC2` [US20230399327, Example 95], the IC50 was determined as 18.1 nM. The IC50 values of the last two compounds are within 1.5-fold of each other.

Compound `CCOc1nc2c(cc1Nc1ncc3ccnc(N[C@H]4CC[C@@H](O)C4)c3n1)CN(C)CC2` [US20230399327, Example 98] gave an IC50 of 0.44 nM.

As to `COc1nc2c(cc1Nc1ncc3ccnc(N4CCC[C@H]4CO)c3n1)CN(C)CC2` [US20230399327, Example 101], the IC50 was less than 0.1 nM.

The compound `CCOc1nc2c(cc1Nc1ncc3ccnc(N4CCC[C@H]4CO)c3n1)CN(C)CC2` [US20230399327, Example 106] gave an IC50 of 15.4 nM. That is a double-digit nanomolar value.

`COc1nc2c(cc1Nc1ncc3ccnc(N4CC(F)(F)C[C@H]4CO)c3n1)CN(C)CC2` [US20230399327, Example 108] yielded an IC50 of less than 0.1 nM.

On to `COc1nc2c(cc1Nc1ncc3ccnc(NC(C)(C)CO)c3n1)CN(C)CC2` [US20230399327, Example 109], for which the IC50 was less than 0.1 nM.

Compound `CC[C@H](CO)Nc1nccc2cnc(Nc3cc4c(nc3OC)CCN(C)C4)nc12` [US20230399327, Example 110] came in with an IC50 of less than 0.1 nM.

Turning to `COc1nc2c(cc1Nc1ncc3ccnc(NCC(C)(C)O)c3n1)CN(C)CC2` [US20230399327, Example 111], the IC50 is less than 0.1 nM.

`COc1cc2c(cc1Nc1ncc3ccnc(N[C@@H](CO)C(C)C)c3n1)CN(C)CC2` [US20230399327, Example 112] had an IC50 of less than 0.1 nM.

The values above are taken from BindingDB's records for patent US20230399327 (Adlai Nortye Biopharma Co., 2023).
